Several values for one entry are separate records, joined by “and”; a condition that tells them apart may be missing. Equal values may be shown once.
Legend:
Format in all cases: in vivo, dog
[1] = test system: dogs with canine cognitive dysfunction; assay: CADES score questionnaire in dogs with cognitive dysfunction; settings: for Average CADES score: treated dogs
Text: Thirty-one dogs older than 10 years were screened for the study. Of these, 14 were excluded from the study because of different abnormal findings observed during the initial examination, including 3 dogs with brain tumor confirmed with the computed tomography (CT); 2 dogs with markedly elevated alanine aminotransferase (ALT) and serum alkaline phosphatase (ALP); 3 dogs with renal disease; 3 dogs with marked hearing and visual deficit; 2 dogs with both renal disease and moderately elevated ALT and ALP and 1 dog with eclampsia.
After the owner's consent, dogs were subjected to physical and neurological examination including body weight and body condition score, blood results for complete blood count (CBC), clinical chemistry, urinanalysis, the canine dementia scale (CADES) questionnaire, and two clinical cognitive tests [food searching test (FST) and problem solving test (PST)]. After these thorough examinations, the decision was made whether the dogs were included in the study. Dogs with systemic illnesses that could interfere with their cognitive function were excluded from the study.
Only dogs aged 10 years or older were included in the study. […] Dogs were not treated with any other medications for cognitive impairment. However, dogs that were included in the control group were allowed to be feed with the commercial therapeutic diet for cognitive decline, if they were on it at least 8 weeks before entering the study and if they maintained the same dietary protocol for the duration of the study. Dogs in the treatment group that were on a diet meant to treat cognitive decline were required to be off the diet for at least 30 days before enrollment and during the duration of the study.
(§1) The study design was following the guidelines of the European Directive 2010/63/EU. Before starting the experimental therapy with their pets, each owner was required to sign an informed consent form. According to The Administration of the Republic of Slovenian for Food Safety, Veterinary and Plant Protection, no ethical permission was needed as the study was performed on clinical patients with the owners' consents. In total, seventeen dogs showing signs of cognitive dysfunction were included in the study. […] Upon enrollment, dogs were physically and neurologically examined, blood and urine analysis were performed. Additionally, a questionnaire based on a modified CADES scale score and two clinical tests (FST and problem PST) for assessing their cognitive function were performed. Dogs were randomly allocated to one of the following two groups: Control group (n=7) without treatment and the treatment group (n=10). Questionnaire and cognitive tests were performed every 2 months on all the dogs included in the study.
Owners were observing their dog's health status daily during the duration of the study. In case of any serious or abnormal observations, they had to contact the participating veterinarian. Physical and excessive neurological examinations (behavior and consciousness, cranial nerves, gait and posture, postural reactions, spinal reflexes) were carried out by the veterinarian and included an assessment of all body systems. A full spectrum of neurobehavioral symptoms including apathy, anxiety, staring blankly, confusion or aimless walking, vocalization during the night, aggression, signs of compulsive and stereotyped behavior, etc. were obtained by questioning the pet owners. Dogs were monitored during examinations. Their responses to familiar and unfamiliar people and objects were observed. Exams were performed at the beginning of the study and every two weeks for the first two months if dogs were included in the treatment group. Thereafter, exams were performed every two months for the duration of the study (at least for 6 months). The control group was examined only every 2 months until the end of the study (for at least 6 months).
Changes in behavior of all dogs were evaluated by the same veterinarian. […]

[2] = test system: dogs with canine cognitive dysfunction; assay: Cognitive tests (food searching test FST and problem solving test PST) in dogs with cognitive dysfunction; parameters: Problem solving test scores (sum of FST and PST test), individual patient: scale not given here; settings: for Problem solving score (sum of FST and PST), group mean: treated dogs; for Problem solving test scores (sum of FST and PST test), individual patient: treated group, one line per patient 1-7, Hydrochloride
Procedure: as §1
FST and PST were performed on each dog included in the study. The design of these tests was based on previously published tests for canine cognitive dysfunction (González-Martinez A. et al. Vet. J. 2013, 198, 176-181). The cognitive tests were evaluated by the same veterinarian. Dogs were tested in the morning after at least 10 hours of the fasting period.
This test was based on testing the dog's ability to find hidden food. The dog was seated in the middle of the room while being on the leash. […] While maintaining visual contact with the dog and still communicating with the dog, showing the food, the veterinarian than moved backward and placed the food in the corner of the room. The veterinarian than stared at the food and pointed to it with his hand for 2-3 s to increase the dog's visual processing. The owner was then asked to leave the room with the dog and wait outside for 15 s. After returning to the room, the dog was placed into the center of the room unleashed and allowed to freely explore the room for 1 minute. No verbal or other clues were allowed. The procedure was repeated twice. […] The FST total score was the average of both runs.
In this test, the ability of the dog to obtain the food by manipulating an object was assessed. […] After that, the food was placed on the floor in front of the dog and covered with a transparent plastic box that had been turned upside down. The dog was given 2 minutes to find a way to remove the box and get the food. […]
Results are presented as mean+SD. […] CADES score and results from behavioral tests were analyzed by repeated measures ANOVA with treatment as the independent variable and clinical test (before the treatment, 3 months, and 6 months after the treatment) as within factor. […]

[3] = test system: dogs with canine cognitive dysfunction; assay: Side effects during treatment of dogs with cognitive dysfunction
Procedure: as §1
Owners were observing their dog's health status daily during the duration of the study. In case of any serious or abnormal observations, they had to contact the participating veterinarian. […] Dogs were monitored during examinations. […]

[4] = treated group, after three months

## COCCN(CC1CCCN(Cc2ccccc2)C1)S(=O)(=O)c1ccc2ccccc2c1.Cl (racemic) [(±)-N-((1-Benzylpiperidin-3-Yl)Methyl)-N-(2-Methoxyethyl)Naphthalene-2-Sulfonamide Hydrochloride]
[1]; all treated dogs, six-month study
  Observed change in cognitive abilities: improved memory, cognitive functions, and learning abilities
[1]; after six months, untreated (2 remaining dogs) 80.5
  Average CADES score: 12.6+/−3.0
[1]; after three months, baseline 39+/−16.4, untreated 64.0+/−12.8
  Average CADES score: 17.1+/−10.6
[1]; treated group, after six months
  Cognitive state according to CADES: all dogs showed moderate cognitive impairment with low CADES score
[1]; [4]
  Dogs showing moderate cognitive impairment (two affected domains): 85.7%
  Dogs showing severe cognitive impairment (three affected domains): 14.3%
[1]; treated group, six-month study, 5 of 7 untreated dogs euthanized
  Survival: all dogs included stayed alive throughout the study
[2]; after six months
  Problem solving score (sum of FST and PST), group mean: 2.7+/−1.0
  Problem solving test scores (sum of FST and PST test), individual patient: 2 (4×) and 3 and 4 (2×)
[2]; after three months, baseline 5.3+/−1.4, untreated 7.6+/−1
  Problem solving score (sum of FST and PST), group mean: 3.1+/−1.1
[2]; after three months
  Problem solving test scores (sum of FST and PST test), individual patient: 4 (4×) and 2 (3×)
[3]; dogs with moderate cognitive impairment, 6 months of treatment
  Side effects: without any noticeable side effects
[3]; dogs with severe cognitive impairment (3 dogs), treatment stopped
  Side effects: signs of gastrointestinal problems with vomiting and diarrhea
